Activity calls are given as the source filed them. No cut-off for these calls is given here.
How the values were obtained:
[1] = system: HGC-27; experiment: Antiinvasive activity in human HGC-27 cells assessed as reduction in number of invasive cells at 0.33 uM incubated for 24 hrs by transwell invasion assay (reference value: 118); type: functional
[2] = system: HGC-27; experiment: Induction of apoptosis in human HGC-27 cells assessed as early apoptotic cells at 0.033 uM incubated for 24 hrs by Annexin V-FITC/PI staining based analysis (reference value: 1.7 %); type: functional
[3] = Cytotoxicity against HUVEC cells assessed as inhibition of cell growth incubated for 72 hrs by MTT assay; type: toxicity, cell-based; conditions: human
[4] = system: HGC-27; experiment: Induction of apoptosis in human HGC-27 cells assessed as early apoptotic cells at 0.1 uM incubated for 24 hrs by Annexin V-FITC/PI staining based analysis (reference value: 1.7 %); type: functional
[5] = Effect on VEGFR2 mRNA expression in human HGC-27 cells at 0.033 uM incubated for 24 hrs by qPCR analysis relative to control; type: functional
[6] = target: T1, von Hippel-Lindau disease tumor suppressor/Vascular endothelial growth factor receptor 2 (Homo sapiens, UniProt P35968+P40337); experiment: PROTAC activity at VHL/VEGFR2 in human HGC-27 cells assessed as induction of VEGFR2 degradation at 1 uM measured after 4 hrs by Western blot analysis relative to control; type: cell-based
[7] = target: T1, von Hippel-Lindau disease tumor suppressor/Vascular endothelial growth factor receptor 2; experiment: PROTAC activity at VHL/VEGFR2 in human HGC-27 cells assessed as induction of VEGRF2 protein degradation at 1 uM preincubated with 4-Amino-N-(6-(1-(2-((4-methyl-3-(trifluoromethyl)phenyl)amino)-2-oxoethyl)-1H-pyrazol-4-y1)-1H-indazol-3-Abenzamide for 2 hrs followed by compound addition and measured after 24 hrs by Western blot analysis; type: cell-based
[8] = system: HGC-27; experiment: Induction of cell cycle arrest in human HGC-27 cells assessed as G0/G1 phase cells at 0.33 uM incubated for 24 hrs by PI staining based flow cytometric analysis (reference value: 47.4%); type: functional
[9] = system: HGC-27; experiment: Induction of cell cycle arrest in human HGC-27 cells assessed as S phase cells at 1 uM incubated for 24 hrs by PI staining based flow cytometric analysis (reference value: 26.4%); type: functional
[10] = target: T1, von Hippel-Lindau disease tumor suppressor/Vascular endothelial growth factor receptor 2; experiment: PROTAC activity at VHL/VEGFR2 in human HGC-27 cells assessed as reduction in relative VEGRF2 expression level at 1 uM preincubated with VH032 for 2 hrs followed by compound addition and measured after 24 hrs by Western blot analysis; type: cell-based
[11] = target: T1, von Hippel-Lindau disease tumor suppressor/Vascular endothelial growth factor receptor 2; experiment: PROTAC activity at VHL/VEGFR2 in human HGC-27 cells assessed as reduction in VEGFR2 protein level at 1 uM by Western blot analysis; type: cell-based; conditions: time 12-36 hrs, TDE = time-dependent effect
[12] = Effect on VEGFR2 mRNA expression in human HGC-27 cells at 0.33 uM incubated for 24 hrs by qPCR analysis relative to control; type: functional
[13] = Effect on VEGFR2 mRNA expression in human HGC-27 cells at 0.1 uM incubated for 24 hrs by qPCR analysis relative to control; type: functional
[14] = system: HGC-27; experiment: Induction of apoptosis in human HGC-27 cells assessed as late apoptotic cells at 0.33 uM incubated for 24 hrs by Annexin V-FITC/PI staining based analysis (reference value: 3%); type: functional
[15] = target: T1, von Hippel-Lindau disease tumor suppressor/Vascular endothelial growth factor receptor 2; experiment: PROTAC activity at VHL/VEGFR2 in human HGC-27 cells assessed as induction of VEGRF2 protein degradation at 1 uM preincubated with MLN4924 for 2 hrs followed by compound addition and measured after 24 hrs by Western blot analysis; type: cell-based
[16] = system: HGC-27; experiment: Antiinvasive activity in human HGC-27 cells assessed as reduction in number of invasive cells at 0.033 uM incubated for 24 hrs by transwell invasion assay (reference value: 118); type: functional
[17] = target: T1, von Hippel-Lindau disease tumor suppressor/Vascular endothelial growth factor receptor 2; experiment: PROTAC activity at VHL/VEGFR2 in human HGC-27 cells assessed as reduction in VEGFR2 protein level by measuring maximal efficacy at 0.15 uM incubated for 24 hrs by Western blot analysis relative to control; type: cell-based
[18] = system: HGC-27; experiment: Induction of apoptosis in human HGC-27 cells assessed as late apoptotic cells at 0.033 uM incubated for 24 hrs by Annexin V-FITC/PI staining based analysis (reference value: 3%); type: functional
[19] = target: T1, von Hippel-Lindau disease tumor suppressor/Vascular endothelial growth factor receptor 2; experiment: PROTAC activity at VHL/VEGFR2 in human HGC-27 cells assessed as induction of VEGFR2 degradation at 1 uM measured after 12 hrs by Western blot analysis relative to control; type: cell-based
[20] = Cytotoxicity against HEK293T cells assessed as inhibition of cell growth incubated for 72 hrs by MTT assay; type: toxicity, cell-based, HEK-293T; conditions: human
[21] = system: HGC-27; experiment: Induction of apoptosis in human HGC-27 cells assessed as necrotic cells at 0.033 uM incubated for 24 hrs by Annexin V-FITC/PI staining based analysis (reference value: 0.65 %); type: functional
[22] = Effect on VEGFR2 mRNA expression in human HGC-27 cells at 3.33 uM incubated for 24 hrs by qPCR analysis relative to control; type: functional

T1 sequence (P35968 20-1356 limits assumed): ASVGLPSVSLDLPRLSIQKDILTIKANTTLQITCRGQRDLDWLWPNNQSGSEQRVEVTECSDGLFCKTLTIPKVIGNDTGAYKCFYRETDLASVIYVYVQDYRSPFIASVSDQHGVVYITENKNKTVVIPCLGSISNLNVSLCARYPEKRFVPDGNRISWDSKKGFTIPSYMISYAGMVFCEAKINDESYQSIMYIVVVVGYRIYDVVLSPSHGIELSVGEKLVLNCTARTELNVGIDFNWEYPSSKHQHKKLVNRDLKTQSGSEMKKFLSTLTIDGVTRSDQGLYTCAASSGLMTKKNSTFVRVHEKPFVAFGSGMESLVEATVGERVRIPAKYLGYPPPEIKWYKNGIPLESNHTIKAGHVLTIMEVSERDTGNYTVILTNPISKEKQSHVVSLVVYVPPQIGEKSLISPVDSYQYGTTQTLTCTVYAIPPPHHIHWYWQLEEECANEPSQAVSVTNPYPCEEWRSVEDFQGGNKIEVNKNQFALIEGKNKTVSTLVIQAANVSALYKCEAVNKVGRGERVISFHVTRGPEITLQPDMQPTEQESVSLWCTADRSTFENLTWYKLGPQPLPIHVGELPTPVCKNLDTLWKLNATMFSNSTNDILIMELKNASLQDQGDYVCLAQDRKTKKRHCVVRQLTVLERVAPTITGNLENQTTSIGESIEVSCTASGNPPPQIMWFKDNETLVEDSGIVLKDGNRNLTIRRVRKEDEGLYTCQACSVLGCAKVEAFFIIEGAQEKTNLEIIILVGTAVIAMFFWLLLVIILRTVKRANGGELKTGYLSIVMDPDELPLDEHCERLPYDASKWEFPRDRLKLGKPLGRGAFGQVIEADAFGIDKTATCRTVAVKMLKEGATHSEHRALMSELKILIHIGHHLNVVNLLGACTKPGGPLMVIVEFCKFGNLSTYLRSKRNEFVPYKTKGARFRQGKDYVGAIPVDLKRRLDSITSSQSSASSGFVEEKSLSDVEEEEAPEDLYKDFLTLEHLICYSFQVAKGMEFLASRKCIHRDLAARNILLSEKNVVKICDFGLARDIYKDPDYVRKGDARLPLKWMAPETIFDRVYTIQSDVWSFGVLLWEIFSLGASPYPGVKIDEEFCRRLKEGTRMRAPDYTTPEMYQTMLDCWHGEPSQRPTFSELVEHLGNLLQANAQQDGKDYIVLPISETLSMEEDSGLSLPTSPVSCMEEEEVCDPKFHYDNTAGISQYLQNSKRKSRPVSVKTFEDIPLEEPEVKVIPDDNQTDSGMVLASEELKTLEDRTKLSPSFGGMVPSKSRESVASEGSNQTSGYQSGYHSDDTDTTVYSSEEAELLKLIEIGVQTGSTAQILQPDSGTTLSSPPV
T1 sequence (P40337 whole entry partner): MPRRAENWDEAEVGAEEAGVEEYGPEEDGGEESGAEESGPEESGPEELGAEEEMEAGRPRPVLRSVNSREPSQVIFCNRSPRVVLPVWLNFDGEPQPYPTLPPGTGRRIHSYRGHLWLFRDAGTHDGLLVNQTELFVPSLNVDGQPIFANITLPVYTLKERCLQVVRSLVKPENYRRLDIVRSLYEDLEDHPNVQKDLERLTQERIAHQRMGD

For `Cc1ccc(NC(=O)Cn2cc(-c3ccc4c(NC(=O)c5ccc(NC(=O)CCCCCCCCC(=O)N[C@H](C(=O)N6C[C@H](O)C[C@H]6C(=O)NCc6ccc(-c7scnc7C)cc6)C(C)(C)C)cc5)n[nH]c4c3)cn2)cc1C(F)(F)F`, the Activity [1] was 36, the Activity [2] was 2% and the IC50 at 72 h [3] was 7.07 µM. The Activity [4] was 3.5%, the Activity [5] was 99.3% and the Activity [6] was 16.9%. The Activity [7] was “inactive”, the Activity [8] was 23.9% and the Activity [9] was 28.5%. For the same molecule, the Activity [10] was “inactive”, the Activity [11] was “Tde” and the Activity [12] was 83%. For the same molecule, the Activity [13] was 90%, the Activity [14] was 6.7% and the Activity [15] was “inactive”. For the same molecule, the Activity [16] was 116, the Emax [17] was 73.7% and the Activity [18] was 3%. For the same molecule, the Activity [19] was 33.3%, the IC50 at 72 h [20] was 14.5 µM and the Activity [21] was 0.32%. For the same molecule, the Activity [22] was 105.3%.

Source: ChEMBL document CHEMBL5247592, “Discovery of novel VEGFR-2-PROTAC degraders based on the localization of lysine residues via recruiting VHL for the treatment of gastric cancer” (Eur J Med Chem, 2022)
